These results are taken from US20230141603A1, “BENZODIAZEPINE DERIVATIVES AS GABA A GAMMA1 PAM” (Hoffmann-La Roche Inc., priority 2021, published 2023).

For one experiment, the target named is T1, h-GABAA α1β2γ1 (Homo sapiens, UniProt P14867+Q8N1C3).
T1 construct: expressed in transfected cells; host or cells: HEK293F cells (ThermoFisher R79007), membranes
T1 sequence (P14867 28-456): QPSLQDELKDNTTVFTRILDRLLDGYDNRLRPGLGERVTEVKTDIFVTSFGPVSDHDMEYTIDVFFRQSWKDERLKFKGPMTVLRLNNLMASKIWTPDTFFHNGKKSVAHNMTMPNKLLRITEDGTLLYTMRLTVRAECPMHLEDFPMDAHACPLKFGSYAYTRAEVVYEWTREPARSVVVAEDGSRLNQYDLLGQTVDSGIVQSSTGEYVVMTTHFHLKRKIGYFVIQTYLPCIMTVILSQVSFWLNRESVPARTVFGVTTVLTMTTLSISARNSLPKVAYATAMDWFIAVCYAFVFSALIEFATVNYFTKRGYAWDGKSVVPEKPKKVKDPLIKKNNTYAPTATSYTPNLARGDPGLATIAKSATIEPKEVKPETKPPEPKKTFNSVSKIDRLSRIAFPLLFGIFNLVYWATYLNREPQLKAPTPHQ
T1 sequence (P47870 25-512 partner limits assumed): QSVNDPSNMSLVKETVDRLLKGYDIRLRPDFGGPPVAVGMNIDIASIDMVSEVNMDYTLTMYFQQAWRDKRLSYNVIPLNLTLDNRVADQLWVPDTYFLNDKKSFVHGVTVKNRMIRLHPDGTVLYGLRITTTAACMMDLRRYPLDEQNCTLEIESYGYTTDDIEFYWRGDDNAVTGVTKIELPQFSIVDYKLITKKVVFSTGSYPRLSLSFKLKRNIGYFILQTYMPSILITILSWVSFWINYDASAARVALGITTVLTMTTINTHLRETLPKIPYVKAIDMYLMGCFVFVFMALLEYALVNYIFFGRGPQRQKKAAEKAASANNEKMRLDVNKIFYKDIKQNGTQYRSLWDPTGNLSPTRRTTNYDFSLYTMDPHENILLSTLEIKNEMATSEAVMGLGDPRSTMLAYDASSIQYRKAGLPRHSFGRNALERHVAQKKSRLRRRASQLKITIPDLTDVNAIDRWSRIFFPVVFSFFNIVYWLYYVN
T1 sequence (Q8N1C3 36-465): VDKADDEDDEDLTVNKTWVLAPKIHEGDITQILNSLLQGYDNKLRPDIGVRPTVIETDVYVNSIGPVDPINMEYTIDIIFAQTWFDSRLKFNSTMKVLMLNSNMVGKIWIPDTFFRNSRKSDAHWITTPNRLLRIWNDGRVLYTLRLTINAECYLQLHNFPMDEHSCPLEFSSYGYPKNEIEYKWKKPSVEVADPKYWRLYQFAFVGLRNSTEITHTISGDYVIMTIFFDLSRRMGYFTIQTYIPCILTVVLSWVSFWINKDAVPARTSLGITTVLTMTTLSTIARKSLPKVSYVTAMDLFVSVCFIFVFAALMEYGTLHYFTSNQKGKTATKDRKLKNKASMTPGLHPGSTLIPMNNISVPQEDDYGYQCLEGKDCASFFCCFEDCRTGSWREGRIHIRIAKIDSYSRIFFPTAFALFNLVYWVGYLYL
Put plainly: Radioligand binding assay, [3H]RO7239181 competition, HEK293F membranes. How it is done:
(§1) The affinity of compounds at GABAA γ1 subunit-containing receptors was measured by competition for [^3H]RO7239181 (67.3 Ci/mmol; Roche) binding to membranes from HEK293F cells (ThermoFisher R79007) expressing human (transiently transfected) receptors of composition […], α2β2γ1, α1β2γ1.
(§2) Harvested pellets from HEK293F cells expressing the different GABAA receptor subtypes were resuspended in Mannitol Buffer pH 7.2-7.4 (Mannitol 0.29M, Triethylamine 10 mM, Acetic acid 10 mM, EDTA 1 mM plus protease inhibitors (20 tablets Complete, Roche Diagnostics Cat. No. 05 056 489 001 per liter)), washed two times and then resuspended at 1:10 to 1:15 dilution in the same buffer. Cell disruption was performed by stirring the suspension in a Parr vessel #4637 at 435 psi for 15 minutes, and then the suspensions were centrifuged at 1000×g for 15 minutes at 4° C. (Beckman Avanti J-HC; rotor JS-4.2). The supernatant (S1) was transferred in a 21 Schott flask and the pellet (P1) was resuspended with Mannitol Buffer up to 175 ml. The resuspended pellet was transferred into a 250 ml Corning centrifugal beaker and centrifuged at 1500×g for 10 minutes at 4° C. (Beckman Avanti J-HC; rotor JS-4.2). The supernatant (S1) was then transferred in the 21 Schott flask and the pellet was discarded. The supernatants (S1) were centrifuged in 500 ml Beckman polypropylene centrifugal beaker at 15′000×g for 30 minutes at 4° C. (Beckman Avanti J-20 XP; rotor JLA-10.500). The pellet (P2) was resuspended with Mannitol Buffer 1:1 and frozen at −80° C. The supernatant (S2) was centrifuged in 100 ml Beckman polypropylene centrifugal tubes at 48000×g for 50 minutes at 4° C. (Beckman Avanti J-20 XP; rotor JA-18). The supernatant (S3) was discarded and the pellet (P3) was resuspended with 1:1 Mannitol Buffer. The P2 and P3 protein concentration was determined with the BIORAD Standard assay method with bovine serum albumin as standard and measured on the NANO-Drop 1000. The membrane suspension was aliquots (500 μl per tube) and stored at −80° C. until required. Membrane homogenates were resuspended and polytronised (Polytron PT1200E Kinematica AG) in Potassium Phosphate 10 mM, KCl 100 mM binding buffer at pH 7.4 to a final assay concentration determined with a previous experiment.
(§3) Assays were incubated to equilibrium for 1 hour at 4° C. and then, membranes were filtered onto unifilter (96-well white microplate with bonded GF/C filters preincubated 20-50 minutes in 0.3% Polyethylenimine) with a Filtermate 196 harvester (Packard BioScience) and washed 4 times with cold Potassium Phosphate 10 mM pH 7.4, KCl 100 mM binding buffer. After drying, filter-retained radioactivity was detected by liquid scintillation counting. Ki values were calculated using Excel-Fit (Microsoft) and are the means of two determinations.

In a further experiment the target is T2, h-GABAA α1β3γ2 (Homo sapiens, UniProt P14867+P18507).
T2 construct: expressed in transfected cells; host or cells: HEK293F cells, membranes
The experiment can be described thus: Radioligand binding assay, [3H]Flumazenil competition, HEK293F membranes. To be noted: for LogSel / γ2/γ1 Selectivity Ratio: Table 3; for LogSel: Log[Ki α1β3γ2 (nM)/Ki α2β2γ1 (nM)]; for γ2/γ1 Selectivity Ratio: Ki α1β3γ2 (nM)/Ki α2β2γ1 (nM). How it is done: The affinity of compounds at GABAA γ2 subunit-containing receptors was measured by competition for [^3H]Flumazenil (81.1 Ci/mmol; Roche) binding to HEK293F cells expressing human (transiently transfected) receptors of composition α1β3γ2.
Harvested pellets from HEK293F cells expressing the different GABAA γ2 receptor subtypes were resuspended in Mannitol Buffer pH 7.2-7.4 and processed as described above for the cells expressing the GABAA γ1 subunit-containing receptors.
Assays were incubated to equilibrium for 1 hour at 4° C. and harvested onto GF/C uni-filters (Packard) by filtration using a Packard harvester and washing with ice-cold wash buffer (50 mM Tris; pH 7.5). After drying, filter-retained radioactivity was detected by liquid scintillation counting. Ki values were calculated using Excel-Fit (Microsoft) and are the means of two determinations.

Experiment [1] concerns the target T3, h-GABAA α2β2γ1 (Homo sapiens, UniProt P47869+Q8N1C3).
T3 sequence (P47869 29-451): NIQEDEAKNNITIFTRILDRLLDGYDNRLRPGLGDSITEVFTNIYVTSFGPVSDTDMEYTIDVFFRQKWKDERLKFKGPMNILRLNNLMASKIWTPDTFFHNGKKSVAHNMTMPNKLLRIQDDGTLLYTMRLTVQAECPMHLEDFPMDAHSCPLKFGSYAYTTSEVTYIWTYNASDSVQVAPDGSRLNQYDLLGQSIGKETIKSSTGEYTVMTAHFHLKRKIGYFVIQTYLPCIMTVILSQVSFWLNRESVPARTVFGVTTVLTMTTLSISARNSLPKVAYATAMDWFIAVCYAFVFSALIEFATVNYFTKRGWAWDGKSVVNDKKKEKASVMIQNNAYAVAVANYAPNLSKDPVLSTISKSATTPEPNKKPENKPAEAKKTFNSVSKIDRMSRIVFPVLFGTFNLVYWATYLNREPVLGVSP
T3 sequence (P47870 25-512 partner limits assumed): T1 sequence (P47870 25-512 partner limits assumed)
T3 sequence (Q8N1C3 36-465): T1 sequence (Q8N1C3 36-465)
The experiment can be described thus: Radioligand binding assay, [3H]RO7239181 competition, HEK293F membranes. Also noted: signal peptide of human GABAA α5 subunit (Met1 to Ser31), replacing the α2 signal peptide (N); expressed in transfected cells; host or cells: HEK293F cells (ThermoFisher R79007), membranes. How it is done: as §1, §2, §3

For experiment [2], the target named is T3, h-GABAA α2β2γ1. The experiment can be described thus: Two-electrode voltage clamp electrophysiology in Xenopus oocytes, modulation of GABA EC20 current. The experiment is classed as cell-based. Details: host or cells: Xenopus laevis oocytes, RNA micro-injection. Conditions: α2β2γ1 GABAA receptor subtype expressing oocytes; reference PAMs. How it is done:
Xenopus laevis oocytes at maturation stages V-VJ were used for the expression of cloned mRNA encoding GABAA receptor subunits. Oocytes ready for RNA micro-injection were bought from Ecocyte, Castrop-Rauxel, Germany and stored in modified Barth's medium (composition in mM: NaCl 88, KCl 1, NaHCO3 2.4, HEPES 10, MgSO4 0.82, CaNO3 0.33, CaCl2 0.33, pH=7.5) at 20° C. until the experiment.
Oocytes were plated in 96-well plates for microinjection using the Roboinject automated instrument (MultiChannelSystems, Reutlingen, Germany). Approximately 50 nL of an aqueous solution containing the RNA transcripts for the subunits of the desired GABAA receptor subtype was injected into each oocyte. […] Oocytes were kept in modified Barth's medium (composition in mM: NaCl 88, KCl 1, NaHCO3 […], HEPES 10, MgSO4 0.82, CaNO3 0.33, CaCl2 0.33, pH=7.5) at 20° C. until the experiment.
Electrophysiological experiments were performed using the Roboocyte instrument (MultiChannelSystems, Reutlingen, Germany) on days 3 to 5 after the micro-injection of mRNA. During the experiment the oocytes were constantly superfused by a solution containing (in mM) NaCl 90, KCl 1, HEPES 5, MgCl2 1, CaCl2 1 (pH 7.4). Oocytes were impaled by two glass microelectrodes (resistance: 0.5-0.8 MΩ) which were filled with a solution containing KCl 1M+K-acetate 1.5 M and voltage-clamped to −80 mV. The recordings were performed at room temperature using the Roboocyte two-electrode voltage clamp system (Multichannelsystem). After an initial equilibration period of 1.5 min GABA was added for 1.5 min at a concentration evoking approximately 20% of a maximal current response (EC20). After another rest interval of 2.5 min GABA was again added evoking a response of similar amplitude and shape. […] Current traces were recorded at a digitization rate of 10 Hz during and shortly before and after the GABA application.
Each compound and concentration was tested on at least 3 oocytes. Different oocytes were used for different compound concentrations.
For the analysis, the digitized current traces of the first and second GABA response were superimposed and, if necessary, rescaled to equal maximal amplitudes. The ratio between the two responses during the time interval of test compound application was calculated point by point. The extremum of the resulting “ratio trace” was taken as the efficacy (“Fold increase”) of the compound expressed as “% modulation of GABA EC20” (100*(Fold increase−1)).
(In general: Two-electrode voltage clamp is typically applied to oocytes expressing channels or transporters.)

Broadly, the Ki is a dissociation constant, usually derived from enzyme kinetics or from competition with a known ligand. The low end stands for higher affinity, the high end for lower affinity. Turning to `Cc1nnc2n1-c1ccc(Cl)cc1C(c1ccccc1)=NC2` [Alprazolam, reference compound], the Ki at h-GABAA α1β2γ1 came to 5920 nM; on h-GABAA α1β3γ2, 19.6 nM; at h-GABAA α2β2γ1 [1], 3940 nM. The compound also came in with a LogSel at h-GABAA α1β3γ2 of −2.3.

On h-GABAA α1β3γ2, `Clc1ccc2c(c1)C(c1ccccc1)=NCc1nncn1-2` [Estazolam, reference compound] registered a Ki of 28.4 nM and a LogSel of −2.0. The compound further showed a Ki at h-GABAA α2β2γ1 [1] of 3180 nM.

Take `Cc1nnc2n1-c1ccc(Br)cc1C(c1c(F)cccc1F)=NC2` [RE-A, 8-bromo-6-(2,6-difluorophenyl)-1-methyl-4H-[1,2,4]triazolo[4,3-a][1,4]benzodiazepine, reference compound]: at h-GABAA α1β3γ2, the affinity corresponds to a Ki of 5.6 nM, the “γ2/γ1 Selectivity Ratio” value was 0.18 and the LogSel was −0.74. The same compound had a Ki on h-GABAA α2β2γ1 [1] of 32.1 nM.

With `Cc1nnc2n1-c1ccc(C(F)(F)F)cc1C(c1c(F)cccc1F)=NC2` [RE-B, 6-(2,6-difluorophenyl)-1-methyl-8-(trifluoromethyl)-4H-[1,2,4]triazolo[4,3-a][1,4]benzodiazepine, reference compound], on h-GABAA α1β3γ2, the Ki worked out at 15.6 nM, the “γ2/γ1 Selectivity Ratio” value is 0.23 and the LogSel is listed as −0.64. This compound also gave a Ki on h-GABAA α2β2γ1 [1] of 68.4 nM.

On to `Cc1nnc2n1-c1ccccc1C(c1c(F)cccc1F)=NC2` [RE-C, 6-(2,6-difluorophenyl)-1-methyl-4H-[1,2,4]triazolo[4,3-a][1,4]benzodiazepine, reference compound], for which, at h-GABAA α1β3γ2, the Ki was determined as 5.8 nM, the “γ2/γ1 Selectivity Ratio” value is listed as 0.0092 and the LogSel is reported as −2.0. This compound also displayed a Ki at h-GABAA α2β2γ1 [1] of 627 nM.

Regarding `Cc1nnc2n1-c1cccc(Cl)c1C(c1c(F)cccc1F)=NC2` [RE-G, 7-chloro-6-(2,6-difluorophenyl)-1-methyl-4H-[1,2,4]triazolo[4,3-a][1,4]benzodiazepine, reference compound], at h-GABAA α1β3γ2, the affinity corresponds to a Ki of 302 nM, the “γ2/γ1 Selectivity Ratio” value amounted to 9.8 and the LogSel is 0.99. Also, on h-GABAA α2β2γ1 [1], the affinity, expressed as Ki, was 30.8 nM.

On h-GABAA α1β3γ2, `Cc1nnc2n1-c1ccc(Cl)cc1C(c1ccccc1Cl)=NC2` [Triazolam, reference compound] had a LogSel of −1.5. Also, the “potentiation of the GABA-induced current” value on h-GABAA α2β2γ1 [2] is roughly 60%.
